Columns and labels:
[1] = system: KCHSC; experiment: Herbicidal pre-emergence action (Table A10); format: in vivo, Kochia scoparia; conditions: application rate 320 g/ha; visual grading after ca. 3 weeks
Summary of the method: (§1)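 Seeds covered with soil after sowing in sandy loam; every pot carried one monocotyledonous and one dicotyledonous weed species as a double sowing.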

[2] = system: SETVI; experiment: Herbicidal pre-emergence action (Table A5); format: in vivo, Setaria viridis; conditions: application rate 320 g/ha; visual grading after ca. 3 weeks
Summary of the method: as §1

[3] = system: POLCO; experiment: Herbicidal pre-emergence action, section C (Table C9); format: in vivo, Polygonum convolvulus; conditions: application rate 80 g/ha; visual grading after ca. 3 weeks
[4] = system: ECHCG; experiment: Herbicidal pre-emergence action (Table A2); format: in vivo, Echinochloa crus-galli; conditions: application rate 320 g/ha; visual grading after ca. 3 weeks
Summary of the method: as §1

[5] = system: MATIN; experiment: Herbicidal pre-emergence action (Table A4); format: in vivo, Matricaria inodora; conditions: application rate 320 g/ha; visual grading after ca. 3 weeks
Summary of the method: as §1

[6] = system: ECHCG; experiment: Herbicidal post-emergence action (Table B3); format: in vivo, Echinochloa crus-galli; conditions: application rate 320 g/ha; rated visually after about 3 weeks
Summary of the method: (§2)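 Each pot held sandy loam sown with a single mono- or dicot weed species, grown under controlled greenhouse conditions. Test plants were sprayed at the one-leaf stage, and after about 3 weeks of further growth the percentage activity relative to untreated plants was rated visually.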

[7] = system: ABUTH; experiment: Herbicidal pre-emergence action (Table A1); format: in vivo, Abutilon theophrasti; conditions: application rate 320 g/ha; visual grading after ca. 3 weeks vs untreated controls (100% = plants have died off, 0% = as control plants)
Summary of the method: as §1

[8] = system: LOLRI; experiment: Herbicidal pre-emergence action (Table A3); format: in vivo, Lolium rigidum; conditions: application rate 320 g/ha; visual grading after ca. 3 weeks
Summary of the method: as §1

[9] = system: LOLRI; experiment: Herbicidal pre-emergence action, section C (Table C7); format: in vivo, Lolium rigidum; conditions: application rate 320 g/ha; visual grading after ca. 3 weeks
[10] = system: DIGSA; experiment: Herbicidal pre-emergence action (Table A12); format: in vivo, Digitaria sanguinalis; conditions: application rate 320 g/ha; visual grading after ca. 3 weeks
Summary of the method: as §1

[11] = system: POAAN; experiment: Herbicidal pre-emergence action (Table A7); format: in vivo, Poa annua; conditions: application rate 320 g/ha; visual grading after ca. 3 weeks
Summary of the method: as §1

[12] = system: SETVI; experiment: Herbicidal pre-emergence action, section C (Table C10); format: in vivo, Setaria viridis; conditions: application rate 320 g/ha; visual grading after ca. 3 weeks
Text: (§5) Seeds of mono- and dicotyledonous weed plants and crop plants were sown, in plastic or organic planting pots, in sandy loam and covered with soil. The compounds according to the invention, formulated in the form of wettable powders (WP) or as emulsifiable concentrates (EC), were applied to the surface of the covering soil as aqueous suspension or emulsion, with the addition of 0.5% of an additive, at an application rate of 600 1 of water/ha (converted). Following treatment, the pots were placed in a greenhouse and kept under optimum growth conditions for the test plants.

[13] = system: AMARE; experiment: Herbicidal post-emergence action (Table B11); format: in vivo, Amaranthus retroflexus; conditions: application rate 1280 g/ha
Summary of the method: as §2

[14] = system: VERPE; experiment: Herbicidal pre-emergence action (Table A11); format: in vivo, Veronica persica; conditions: application rate 1280 g/ha; visual grading after ca. 3 weeks
Summary of the method: as §1

[15] = system: MATIN; experiment: Herbicidal post-emergence action (Table B6); format: in vivo, Matricaria inodora; conditions: application rate 1280 g/ha; rated visually after about 3 weeks
Summary of the method: as §2

[16] = system: ECHCG; experiment: Herbicidal pre-emergence action, section C (Table C6); format: in vivo, Echinochloa crus-galli; conditions: application rate 80 g/ha; visual grading after ca. 3 weeks
[17] = system: ALOMY; experiment: Herbicidal pre-emergence action, section C (Table C2); format: in vivo, Alopecurus myosuroides; conditions: application rate 80 g/ha; visual grading after ca. 3 weeks
Text: as §5

[18] = system: ZEAMX; experiment: Post-emergence effects on crop plants (Table F1); format: in vivo, Zea mays; conditions: application rate 320 g/ha, crop plant ZEAMX
Text: (§3) 2 to 3 weeks after sowing, the test plants were sprayed in the single-leaf stage.

[19] = system: STEME; experiment: Herbicidal pre-emergence action (Table A6); format: in vivo, Stellaria media; conditions: application rate 320 g/ha; visual grading after ca. 3 weeks
Summary of the method: as §1

[20] = system: VERPE; experiment: Herbicidal post-emergence action (Table B10); format: in vivo, Veronica persica; conditions: application rate 1280 g/ha
Summary of the method: as §2

[21] = system: KCHSC; experiment: Herbicidal post-emergence action (Table B4); format: in vivo, Kochia scoparia; conditions: application rate 1280 g/ha; rated visually after about 3 weeks
Method: (§4) Seeds of mono- and dicotyledonous weed plants were placed in plastic pots in sandy loam soil (doubly sown with in each case one species of mono- or dicotyledonous weed plants per pot), covered with soil and cultivated in a greenhouse under controlled growth conditions. 2 to 3 weeks after sowing, the test plants were treated at the one-leaf stage. […] After the test plants had been kept in the greenhouse under optimum growth conditions for about 3 weeks, the activity of the preparations was rated visually in comparison to untreated controls. For example, 100% activity = the plants have died, 0% activity = like control plants.

[22] = system: MATIN; experiment: Herbicidal pre-emergence action, section C (Table C8); format: in vivo, Matricaria inodora; conditions: application rate 320 g/ha; visual grading after ca. 3 weeks
[23] = system: ABUTH; experiment: Herbicidal pre-emergence action, section C (Table C1); format: in vivo, Abutilon theophrasti; conditions: application rate 80 g/ha; visual grading after ca. 3 weeks
[24] = system: SETVI; experiment: Herbicidal post-emergence action (Table B8); format: in vivo, Setaria viridis; conditions: application rate 320 g/ha
Summary of the method: as §2

[25] = system: ABUTH; experiment: Herbicidal post-emergence action (Table B1); format: in vivo, Abutilon theophrasti; conditions: application rate 320 g/ha; treated at one-leaf stage; rated visually after about 3 weeks vs untreated controls (100% = plants have died, 0% = like control plants)
Summary of the method: as §2

[26] = system: ZEAMX; experiment: Pre-emergence effects on crop plants (Table D1); format: in vivo, Zea mays; conditions: crop plant; application rate 80 g/ha; visual grading after ca. 3 weeks
Text: (§6) Seeds of mono- and dicotyledonous weed plants and crop plants were sown, in plastic or organic planting pots, in sandy loam and covered with soil. The compounds according to the invention, formulated in the form of wettable powders (WP) or as emulsifiable concentrates (EC), were applied to the surface of the covering soil as aqueous suspension or emulsion, with the addition of 0.5% of an additive, at an application rate of 600 1 of water/ha (converted).
(§7) Following treatment, the pots were placed in a greenhouse and kept under optimum growth conditions for the test plants.

[27] = system: AMARE; experiment: Herbicidal pre-emergence action, section C (Table C3); format: in vivo, Amaranthus retroflexus; conditions: application rate 320 g/ha; visual grading after ca. 3 weeks
Text: as §5

[28] = system: AMARE; experiment: Herbicidal pre-emergence action (Table A8); format: in vivo, Amaranthus retroflexus; conditions: application rate 320 g/ha; visual grading after ca. 3 weeks vs untreated controls (100% = plants have died off, 0% = as control plants)
Summary of the method: as §1

[29] = system: ORYZA; experiment: Pre-emergence effects on crop plants (Table D3); conditions: crop plant; application rate 80 g/ha; visual grading after ca. 3 weeks
Text: as §6, §7

[30] = system: TRZAS; experiment: Post-emergence effects on crop plants (Table F2); format: in vivo, Triticum aestivum; conditions: application rate 320 g/ha, crop plant TRZAS
Text: as §3

[31] = system: POAAN; experiment: Herbicidal post-emergence action (Table B7); format: in vivo, Poa annua; conditions: application rate 1280 g/ha
Summary of the method: as §2

[32] = system: ALOMY; experiment: Herbicidal pre-emergence action (Table A9); format: in vivo, Alopecurus myosuroides; conditions: application rate 1280 g/ha; visual grading after ca. 3 weeks
Summary of the method: as §1

[33] = system: DIGSA; experiment: Herbicidal pre-emergence action, section C (Table C5); format: in vivo, Digitaria sanguinalis; conditions: application rate 80 g/ha; visual grading after ca. 3 weeks
[34] = system: VIOTR; experiment: Herbicidal pre-emergence action, section C (Table C12); format: in vivo, Viola tricolor; conditions: application rate 80 g/ha; visual grading after ca. 3 weeks
[35] = system: ORYZA; experiment: Post-emergence effects on crop plants (Table F3); format: in vivo, Oryza sativa; conditions: application rate 320 g/ha, crop plant ORYZA
Text: as §3

[36] = system: VERPE; experiment: Herbicidal pre-emergence action, section C (Table C11); format: in vivo, Veronica persica; conditions: application rate 320 g/ha; visual grading after ca. 3 weeks
Text: as §5

[37] = system: DIGSA; experiment: Herbicidal post-emergence action (Table B12); format: in vivo, Digitaria sanguinalis; conditions: application rate 1280 g/ha
Method: as §4

[38] = system: GLXMA; experiment: Post-emergence effects on crop plants (Table F4); format: in vivo, Glycine max; conditions: application rate 80 g/ha, crop plant GLXMA
Text: as §3

O=C1N(Cc2ccccc2F)CCCC12CCN(Cc1cccc(F)c1F)C2=O (racemic) [I-016]
pre-emergence activity against KCHSC [1]: 90% | pre-emergence activity against SETVI [2]: 100% | pre-emergence activity against POLCO [3]: 90% | pre-emergence activity against ECHCG [4]: 100% | pre-emergence activity against MATIN [5]: 90% | post-emergence activity against ECHCG [6]: 90% | pre-emergence activity against ABUTH [7]: 90% | pre-emergence activity against LOLRI [8]: 100% | pre-emergence activity against LOLRI [9]: 100% | pre-emergence activity against DIGSA [10]: 100% | pre-emergence activity against POAAN [11]: 100% | pre-emergence activity against SETVI [12]: 100% | post-emergence activity against AMARE [13]: 90% | pre-emergence activity against VERPE [14]: 90% | post-emergence activity against MATIN [15]: 90% | pre-emergence activity against ECHCG [16]: 100% | pre-emergence activity against ALOMY [17]: 90% | post-emergence activity against ZEAMX [18]: 0% | pre-emergence activity against STEME [19]: 90% | post-emergence activity against VERPE [20]: 90% | post-emergence activity against KCHSC [21]: 90% | pre-emergence activity against MATIN [22]: 90% | pre-emergence activity against ABUTH [23]: 80% | post-emergence activity against SETVI [24]: 90% | post-emergence activity against ABUTH [25]: 90% | pre-emergence activity against ZEAMX [26]: 0% | pre-emergence activity against AMARE [27]: 90% | pre-emergence activity against AMARE [28]: 90% | pre-emergence activity against ORYZA [29]: 0% | post-emergence activity against TRZAS [30]: 0% | post-emergence activity against POAAN [31]: 90% | pre-emergence activity against ALOMY [32]: 90% | pre-emergence activity against DIGSA [33]: 100% | pre-emergence activity against VIOTR [34]: 90% | post-emergence activity against ORYZA [35]: 0% | pre-emergence activity against VERPE [36]: 90% | post-emergence activity against DIGSA [37]: 90% | post-emergence activity against GLXMA [38]: 0%

— patent publication EP4273147A1, “SUBSTITUTED SPIROLACTAMS, SALTS THEREOF AND THEIR USE AS HERBICIDALLY ACTIVE SUBSTANCES” (Bayer Aktiengesellschaft, priority 2022, dated 2023)
